Results on one compound are retold here after US20180078560A1, “USE OF 4-(4-FLUORO-2-METHOXYPHENYL)-N-{3-[(S-METHYLSULFONIMIDOYL)METHYL]PHENYL}-1,3,5-TRIAZIN-2-AMINE FOR TREATING MULTIPLE MYELOMA” (Bayer Pharma Aktiengesellschaft, priority 2015, published 2018).

Entries after “also recorded” stand apart in the source; their conditions may differ.

In data set [1] the test system is NCI-H929 multiple myeloma xenograft. The data set is described as follows: In vivo efficacy in NCI-H929 multiple myeloma xenograft model. Set-up: species or system NOD/SCID mice. Conditions: 25 mg/kg/day p.o. once daily. The protocol:
The aim of the present experiments was to assess the in vivo efficacy and tolerability of Compound A′ in monotherapy in the NCI-H929 multiple myeloma xenograft model subcutaneously implanted into NOD/SCID mice.
(§1) In vivo efficacy was determined in female NOD/SCID mice bearing subcutaneous multiple myeloma NCI-H929 xenografts. Compound A′ was assessed at one dose level in monotherapy. Anti-tumour activity and tolerability of the treated group was assessed using the vehicle control group as a reference.
Multiple myeloma tumour fragments, derived from the NCI-H929 cell line, were obtained from xenografts in serial passage in nude mice and placed in PBS containing 10% penicillin/streptomycin. Tumour fragments (one fragment per animal; 3-4 mm edge length) were then subcutaneously implanted in the flank of NOD/SCID recipient mice under isofluorane anaesthesia.
At randomisation, the volume of growing tumours was initially determined. […] The result of the randomisation was documented and maintained with the experimental data Animals not randomised were euthanised. […]
The tumour volumes were determined by two-dimensional measurement with a caliper on the day of randomisation (day 0) and then twice weekly (i.e. on the same days on which mice were weighed). Tumour volumes were calculated according to the formulas: […]
Relative volumes of individual tumours (RTVs) for Day x were calculated by dividing the absolute individual tumour volume on Day x (Tx) by the absolute individual tumour volume of the same tumour on Day 0 (T0) multiplied by 100%:
Anti-tumour activity was evaluated as maximum tumour volume inhibition versus the vehicle control group.
Tumour inhibition for a particular day (T/C in %) was calculated from the ratio of the median RTV values of test versus control groups multiplied by 100.
The minimum (or optimum) T/C% value recorded for a particular test group during an experiment represents the maximum anti-tumour activity for the respective treatment. T/C values were calculated if at least 50% of the randomized animals in the treated group were alive on the day in question. […]

For another data set, the system named is NCI-H929. The data set can be described thus: Proliferation assay, NCI-H929 cell line. It counts as cell-based. The following applies: Homo sapiens, Multiple myeloma, after 72 hours of incubation.
A further data set has as its system OPM-2. The data set is described as follows: Proliferation assay, OPM-2 cell line. It counts as cell-based. Conditions: Homo sapiens, Multiple myeloma, after 72 hours of incubation.
The nature of data set [2]: Tolerability (survival and body weight) in xenograft-bearing mice. It is filed as in vivo. As for the experimental part:
as §1
Mortality checks were conducted daily during routine monitoring.
Mice were weighed twice a week. Relative body weights of individual mice in % were calculated by dividing the individual body weight on day X (BWX) by the individual body weight on day 0 (BW0) multiplied by 100 according to the formula: […]
Group median relative body weights were calculated as well, considering only the weights of mice that were alive on the day in question.
The in vivo efficacy and tolerability of BHC's investigational compound Compound A′ was assessed in monotherapy in the NCI-H929 multiple myeloma xenograft model. NCI-H929 tumour fragments, obtained from serial passage in nude mice, were implanted subcutaneously into female NOD/SCID mice. Compound A′ was administered orally at one dose level (25 mg/kg/day) in monotherapy once daily and treatment was started once subcutaneous tumours were established. A vehicle-treated control group was included in each experiment. […] Anti-tumour activity (tumour growth inhibition) and tolerability of treatment group was assessed using the vehicle control group as a reference.

For a further data set, the system named is EJM. The data set is described as follows: Proliferation assay, EJM cell line. It counts as cell-based. Conditions: Homo sapiens, Multiple myeloma, after 72 hours of incubation.
The next data set has as its system JJN3. The data set can be described thus: Proliferation assay, JJN3 cell line. It is filed as cell-based. Conditions: Homo sapiens, JJN-3, Multiple myeloma, after 72 hours of incubation.

Consider `COc1cc(F)ccc1-c1ncnc(Nc2cccc(CS(C)(=N)=O)c2)n1` (single isomer, unassigned; (+)) [Compound A′, (+)-4-(4-Fluoro-2-methoxyphenyl)-N-{3-[(S-methylsulfonimidoyl)methyl]phenyl}-1,3,5-triazin-2-amine], for which the “NCI-H929 tumour growth vs vehicle control group” value in data set [1] (Mann-Whitney-Wilcoxon U-test) was “significantly reduced; also recorded: significantly attenuated”. Further, the “minimum T/C value” in data set [1] (NCI-H929 xenograft s.c. in female NOD/SCID mice, ratio of median RTV vs vehicle) was found to be 5.5%. Further, the anti-tumour activity rating entry in data set [1] (NCI-H929 xenograft, rating from optimum T/C) is listed as “High anti-tumour activity”. The concentration for half-maximal inhibition (IC50) – broadly, the midpoint of a concentration-inhibition curve – worked out at 237 nM in the data set with NCI-H929, 600 nM in the data set on OPM-2, 200 nM in the data set with EJM and 330 nM with JJN3. In addition, the “group median BWL (body weight loss)” value in data set [2] (NCI-H929 xenograft-bearing NOD/SCID mice, 25 mg/kg/day p.o. once daily) was at most 2.7%. Also, in data set [2] (multiple myeloma xenograft-bearing mice, 25 mg/kg/day p.o.), the tolerability profile entry is “acceptable tolerability profile”.
